Data: US20240109918A1, “HETEROCYCLIC COMPOUNDS AND USES THEREOF” (Kumquat Biosciences Inc., priority 2022, published 2024)

How the values were obtained:
KRASG12D = target: T1, KRASG12D (Homo sapiens, UniProt P01116, G12D); assay: Bio-Biochem-PPI-HTRF Ras-SOS1 interaction assay (KRAS G12D); format: biochemical; details: 5 nM
T1 construct: made in house; host or cells: E. coli BL21 (DE3)
Outline: (§1)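 Inhibition of His-hSOS1 binding to GST-tagged wild-type or G12D K-Ras is read as HTRF ratio (665/620 nm) following incubation of about 10 minutes or longer, and IC50 values are fitted from duplicate six-point titrations.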

KRASwt = target: T2, KRASwt (Homo sapiens, UniProt P01116); assay: Bio-Biochem-PPI-HTRF Ras-SOS1 interaction assay (KRAS wt); format: biochemical; details: 5 nM
T2 construct: made in house; host or cells: E. coli BL21 (DE3)
Outline: as §1

T1 sequence (P01116 1-188 isoform P01116-2 G12D): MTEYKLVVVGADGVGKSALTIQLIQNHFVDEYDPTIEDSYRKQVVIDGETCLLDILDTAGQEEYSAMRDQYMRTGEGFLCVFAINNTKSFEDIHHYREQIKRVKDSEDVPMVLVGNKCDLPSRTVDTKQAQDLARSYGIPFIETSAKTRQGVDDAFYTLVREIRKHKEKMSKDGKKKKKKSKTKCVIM
T2 sequence (P01116 1-188 isoform P01116-2): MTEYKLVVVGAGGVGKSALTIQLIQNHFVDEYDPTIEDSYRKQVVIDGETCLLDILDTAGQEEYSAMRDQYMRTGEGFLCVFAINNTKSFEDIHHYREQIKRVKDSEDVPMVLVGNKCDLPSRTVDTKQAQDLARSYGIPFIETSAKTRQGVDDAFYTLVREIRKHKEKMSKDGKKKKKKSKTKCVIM

Row | IC50 (KRASG12D) [µM] | IC50 (KRASwt) [µM] | Structure (SMILES)
1 | < 5 | < 5 | C#Cc1c(F)ccc2cc(O)cc(-c3ncc4c(N5CCCCC6(CN(C(=O)[C@@H]7CC7(F)F)C6)C5)nc(OC[C@@]56CCCN5C[C@H](F)C6)nc4c3F)c12 [compound 334, ((S)-2,2-difluorocyclopropyl) (6-(7-(8-ethynyl-7-fluoro-3-hydroxynaphthalen-1-yl)-8-fluoro-2-(((2R,7aS)-2-fluorotetrahydro-1H-pyrrolizin-7a(5H)-yl)methoxy)pyrido[4,3-d]pyrimidin-4-yl)-2,6-diazaspiro[3.6]decan-2-yl)methanone]
2 | < 5 | < 5 | CC(C)(O)C(F)(F)C(=O)N1CC2(CCCCN(c3nc(OC[C@@]45CCCN4C[C@H](F)C5)nc4c(F)c(-c5ccc(F)c6sc(N)c(C#N)c56)c(Cl)cc34)C2)C1 [compound 339, 2-amino-4-(6-chloro-4-(2-(2,2-difluoro-3-hydroxy-3-methylbutanoyl)-2,6-diazaspiro[3.6]decan-6-yl)-8-fluoro-2-(((2R,7aS)-2-fluorotetrahydro-1H-pyrrolizin-7a(5H)-yl)methoxy)quinazolin-7-yl)-7-fluorobenzo[b]thiophene-3-carbonitrile]
3 | < 5 | < 5 | N#Cc1c(N)sc2c(F)ccc(-c3c(Cl)cc4c(N5CCCCC6(CN(C(=O)CN7CCOCC7=O)C6)C5)nc(OC[C@@]56CCCN5C[C@H](F)C6)nc4c3F)c12 [compound 326, 2-amino-4-(6-chloro-8-fluoro-2-(((2R,7aS)-2-fluorotetrahydro-1H-pyrrolizin-7a(5H)-yl)methoxy)-4-(2-(2-(3-oxomorpholino)acetyl)-2,6-diazaspiro[3.6]decan-6-yl)quinazolin-7-yl)-7-fluorobenzo[b]thiophene-3-carbonitrile]

More lines, now with the values behind:

Row | Structure (SMILES) | IC50 (KRASG12D) [µM] | IC50 (KRASwt) [µM]
4 | CN(C(=O)N1CC2(CCCCN(c3nc(OC[C@@]45CCCN4C[C@H](F)C5)nc4c(F)c(-c5ccc(F)c6sc(N)c(C#N)c56)c(Cl)cc34)C2)C1)C1CC1 [compound 234, 6-(7-(2-amino-3-cyano-7-fluorobenzo[b]thiophen-4-yl)-6-chloro-8-fluoro-2-(((2R,7aS)-2-fluorotetrahydro-1H-pyrrolizin-7a(5H)-yl)methoxy)quinazolin-4-yl)-N-cyclopropyl-N-methyl-2,6-diazaspiro[3.6]decane-2-carboxamide] | < 5 | < 5
5 | N#Cc1c(N)sc2c(F)ccc(-c3c(Cl)cc4c(N5CCC(OC(F)F)CC6(CN(C(=O)[C@@H]7CC7(F)F)C6)C5)nc(OC[C@@]56CCCN5C[C@H](F)C6)nc4c3F)c12 (stereo partly drawn) [compound 313, 2-amino-4-(6-chloro-4-(2-((S)-2,2-difluorocyclopropane-1-carbonyl)-9-(difluoromethoxy)-2,6-diazaspiro[3.6]decan-6-yl)-8-fluoro-2-(((2R,7aS)-2-fluorotetrahydro-1H-pyrrolizin-7a(5H)-yl)methoxy)quinazolin-7-yl)-7-fluorobenzo[b]thiophene-3-carbonitrile] | < 5 | < 5
6 | N#Cc1c(N)sc2c(F)ccc(-c3c(Cl)cc4c(N5CCCCC6(CN(C(=O)c7ccnn7C(F)(F)F)C6)C5)nc(OC[C@@]56CCCN5C[C@H](F)C6)nc4c3F)c12 [compound 323, 2-amino-4-(6-chloro-8-fluoro-2-(((2R,7aS)-2-fluorotetrahydro-1H-pyrrolizin-7a(5H)-yl)methoxy)-4-(2-(1-(trifluoromethyl)-1H-pyrazole-5-carbonyl)-2,6-diazaspiro[3.6]decan-6-yl)quinazolin-7-yl)-7-fluorobenzo[b]thiophene-3-carbonitrile] | < 5 | < 5
7 | N#Cc1c(N)sc2c(F)ccc(-c3c(Cl)cc4c(N5CCCCC6(CN(C(=O)C7C8COCC87)C6)C5)nc(OC[C@@]56CCCN5C[C@H](F)C6)nc4c3F)c12 (stereo partly drawn) [compound 238, 4-(4-(2-(3-oxabicyclo[3.1.0]hexane-6-carbonyl)-2,6-diazaspiro [3.6]decan-6-yl)-6-chloro-8-fluoro-2-(((2R,7aS)-2-fluorotetrahydro-1H-pyrrolizin-7a(5H)-yl)methoxy)quinazolin-7-yl)-2-amino-7-fluorobenzo[b]thiophene-3-carbonitrile] | < 5 | < 5
